The values below are quoted from earlier work in patent publication US20120232274A1, “PROCESS FOR PREPARATION OF CLOPIODOGREL BISULFATE FORM-1” (PHARMAZELL GMBH, priority 2009, published 2012).

The conditions of data set [1]: Form 2 compared with Form 1 of Clopidogrel bisulfate.
For data set [2] the following is noted: Form 2 compared with Form 1 of Clopidogrel bisulfate. The source holds these as a separate data set.

Take `COC(=O)[C@H](c1ccccc1Cl)N1CCc2sccc2C1` [Form 2, Clopidogrel bisulfate]: in data set [1], the solubility result was “lower solubility than Form 1”. Besides, the thermodynamic stability entry in data set [2] was “greater thermodynamic stability”.
